For test [1], the target named is BCL2 G101V (Homo sapiens, UniProt P10415, G101V). Nature of the test: TR-FRET competitive binding assay, BCL2 G101V. Particulars: BCL2 G101V; Ki determined from IC50; read-out: TR_FRET EKI_Bcl2 G101V. In short, it runs like this:
(§1)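 Ki derived from IC50 (11-point dilution, 520/495 nm emission ratio) for displacing a fluorescein-labelled PUMA peptide (2 or 20 nM). Target was 0.5 nM E. coli-expressed Halo-tagged BCL2 (1-207) or BCLXL (2-196), terbium-labelled on Halo. Incubation 2 h at 23°C in pH 7.5 Hepes with 150 mM NaCl and 5% DMSO.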

Test [2] has as its system BCL2 G101V. Nature of the test: TR-FRET competitive binding assay, BCL2 G101V. Further details: species or system human. As to conditions: for TR_FRET EKI G101V/WT selectivty ratio: ratio Ki BCL2 G101V / Ki BCL2 WT. Summed up:
as §1

Test [3] concerns the target BCL2 D103Y (Homo sapiens, UniProt P10415, D103Y). As to the kind of experiment: TR-FRET competitive binding assay, BCL2 D103Y. Particulars: Ki determined from IC50, read-out: TR_FRET EKI_Bcl2 D103Y. Summed up:
as §1
(Time-resolved FRET reads energy transfer from a long-lived donor to a nearby acceptor.)

Test [4] relates to KMS-12-PE Bcl-2 G101V. As to the kind of experiment: In vitro cytotoxicity CellTiter-Glo 48 h, KMS-12-PE Bcl-2 G101V. In kind it is cell-based. As to conditions: for Ratio (G101V/WT): C50 KMS-12-PE Bcl-2 G101V over C50 KMS-12-PE Bcl-2 WT; for IC50: Homo sapiens, KMS-12-PE, 48 h, CellTiter-Glo, C50 = concentration needed to reach 50% of the cellular viability. In short, it runs like this: (§2)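 Transduce KMS-12-PE with Bcl-2 WT or G101V lentivirus, then FACS-sort RFP-positive cells. Add compounds in an 11-point dilution series and incubate 48 h at 37 °C. Measure ATP-based luminescence with CellTiter-Glo and derive C50 (50% viability).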

Test [5] relates to KMS-12-PE Bcl-2 WT. As to the kind of experiment: In vitro cytotoxicity CellTiter-Glo 48 h, KMS-12-PE Bcl-2 WT. The format is cell-based. Particulars: Homo sapiens, KMS-12-PE, C50 = concentration needed to reach 50% of the cellular viability. In short, it runs like this: as §2
Test [6] has as its target BCL2 WT (Homo sapiens (Human), UniProt P10415). Nature of the test: TR-FRET competitive binding assay, BCL2 WT. Summed up: as §1
Test [7] addresses BCLXL WT (Homo sapiens (Human), UniProt Q07817). As to the kind of experiment: TR-FRET competitive binding assay, BCLXL WT. As to conditions: for Ki: BCLXL WT, Ki determined from IC50, read-out: TR_FRET EKI BclxL; for TR_FRET EKI BCLxL/WT selectivty ratio: ratio Ki BCLxL / Ki BCL2 WT. In short, it runs like this: as §1
In test [8] the target is BCL2 F104I (Homo sapiens, UniProt P10415, F104I). Nature of the test: TR-FRET competitive binding assay, BCL2 F104I. As to conditions: Ki determined from IC50, read-out: TR_FRET EKI_Bcl2 F104I. The method, then:
(§3) The relative binding potency of each compound was determined in a competitive binding assay using time resolved-fluorescence resonance energy transfer (TR-FRET). The method utilised a fluorescein labelled peptide derived from PUMA (5Flu-Ahx-[…]-NH2 wherein Ahx means 6-hexanoic acid monomer and the amino acid sequence is referred to as SEQ ID:01) which binds to a terbium labelled BCL2 or BCLXL protein. The degree of binding or corresponding compound inhibition can be quantified by the TR-FRET signal between the terbium donor and fluorescein acceptor.
(§4) The human BCL2_wild-type (also named BCL2_wt), BCL2_G101V mutant and BCLXL_wild-type were E. coli expressed as a N-terminal Halo-fusion proteins and singly labelled with Terbium on the Halo protein to afford the following amino acid sequences:
(§5) wherein the BCL2(1-207) sequence corresponds to UniProtKB® primary accession number P10415 and the BCLXL(2-196) sequence corresponds to UniProtKB® primary accession number Q07817-1.
(§6) The assay was performed in a 40 μL volume in white 384-standard well plates (Corning #3574). An 11-point serial dilution of each compound was prepared in DMSO and transferred directly to plate followed by addition of fluorescein labelled peptide and lastly protein. Final assay conditions were 0.5 nM BCL2_wt, BCL2_G101V, BCL2_D103Y, BCL2_F104I, BCL2_D111A or BCLXL_wt, 2 or 20 nM fluorescein labelled peptide, 50 mM Hepes pH 7.5, 150 mM NaCl, 0.5 mM TCEP (Tris(2-carboxyethyl)phosphine), 0.05% Tween 20, 5% DMSO. The mixture was incubated for 2 hours at 23° C.
(§7) TR-FRET measurements were performed on a Biotek Synergy Neo plate reader. TR-FRET was measured by excitation of the Terbium-donor at 340 nm and subsequent (delay time 100 μs) measurement of terbium and fluorescein emission at 495 nm and 520 nm, respectively, over a collection time of 300 μs. The TR-FRET signal was calculated as the emission-ratio at 520 nm over 495 nm.
(§8) The TR-FRET ratio readout for test compounds was normalized against 0% inhibition controls wells and 100% inhibition control wells. Test compound potency (IC50) was estimated by nonlinear regression using the sigmoidal dose-response (variable slope) using Xlfit 4 (IDBS, Guildford, Surrey, UK, model 205). Were the IC50 could not be determined the % inhibition at the highest tested concentration is given.
(§9) y=(A+((B−A)/(1+((C/x)^D))))
(§10) where y is the normalized TR-TRET ratio measurement for a given concentration of test compound, x is the concentration of test compound, A is the estimated efficacy (% inhibition) at infinite compound dilution, and B is the maximal efficacy (% inhibition). C is the IC50 value and D is the Hill slope coefficient.
(§11) The K1 values were determined from the IC50 values according to Cer et al, Nucleic Acids Res, 2009, July 1; 37 (WebServer issue): W441-W445.

The target of test [9] is BCL2 D111A (Homo sapiens, UniProt P10415, D111A). Nature of the test: TR-FRET competitive binding assay, BCL2 D111A. Particulars: Ki determined from IC50, read-out: TR_FRET EKI_Bcl2 D111A. The protocol:
as §3, §4, §5, §6, §7, §8, §9, §10, §11

[10] abbreviates: Ki determined from IC50, read-out: TR_FRET EKI_Bcl2 WT.

Data on seven molecules can be found in US20250179047A1, “5-[7-(3,4-DIHYDRO-1H-ISOQUINOLINE-2-CARBONYL)-1,2,3,4 TETRAHYDROISOQUINOLIN-6-YL]-1H-PYRROLE-3-CARBOXAMIDE DERIVATIVES, PHARMACEUTICAL COMPOSITIONS CONTAINING THEM AND THEIR USES AS PRO-APOPTOTIC AGENTS” (LES LABORATOIRES SERVIER, priority 2022, published 2025).

Molecules are shown by their SMILES. Where two headings read alike, the source gives them in different places.

Chain of BCLXL WT (Q07817 other isoform, or with tags, fused parts or gaps): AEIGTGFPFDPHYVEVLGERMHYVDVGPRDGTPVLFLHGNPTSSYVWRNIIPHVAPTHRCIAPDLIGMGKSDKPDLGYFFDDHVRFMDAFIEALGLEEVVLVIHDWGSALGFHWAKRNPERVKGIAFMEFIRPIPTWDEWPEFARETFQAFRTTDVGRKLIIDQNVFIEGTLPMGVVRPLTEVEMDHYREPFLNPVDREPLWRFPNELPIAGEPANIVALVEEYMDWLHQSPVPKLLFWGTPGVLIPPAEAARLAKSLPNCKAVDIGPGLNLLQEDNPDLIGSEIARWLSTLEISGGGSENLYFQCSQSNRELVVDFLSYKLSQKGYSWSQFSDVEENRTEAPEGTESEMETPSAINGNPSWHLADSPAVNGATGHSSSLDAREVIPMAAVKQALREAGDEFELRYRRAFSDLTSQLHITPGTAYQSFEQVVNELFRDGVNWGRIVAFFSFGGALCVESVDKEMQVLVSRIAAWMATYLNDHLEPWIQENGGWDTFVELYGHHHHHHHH

The term IC50 denotes the concentration that inhibits the measured activity by half. Consider `Cc1c(N(C(=O)c2cc(-c3cc4c(cc3C(=O)N3Cc5ccccc5C[C@H]3C)CN(C(=O)COc3ccccc3)CC4)n(C)c2C)c2ccc(O)cc2)cc(C#N)n1C` [Example 2, N-(5-cyano-1,2-dimethyl-1H-pyrrol-3-yl)-N-(4-hydroxyphenyl)-1,2-dimethyl-5-{7-[(3R)-3-methyl-1,2,3,4-tetrahydroisoquinoline-2-carbonyl]-2-(2-phenoxyacetyl)-1,2,3,4-tetrahydroisoquinolin-6-yl}-1H-pyrrole-3-carboxamide], for which the Ki in [1] was found to be 0.5 nM; in test [3], 1.09 nM; in [6] (setting [10]), 0.17 nM; in test [7], 2.1 nM; in [8] it was 3.08 nM. Further, the “TR_FRET EKI G101V/WT selectivty ratio” value in test [2] turned out to be 3.0. In test [4], the “Ratio (G101V/WT)” value is given as 5.04. Moreover, the half-inhibitory concentration (IC50) is 0.02 µM in test [4] and 0.004 µM in [5]. Further, the “TR_FRET EKI BCLxL/WT selectivty ratio” value in test [7] is recorded as 12.7.
On to `Cc1c(N(C(=O)c2cc(-c3cc4c(cc3C(=O)N3Cc5ccccc5C[C@H]3C)CN(C(=O)Cc3cccc(N5CCN(C)CC5)c3)CC4)n(C)c2C)c2ccccc2)cc(C#N)n1C` [Example 3, N-(5-cyano-1,2-dimethylpyrrol-3-yl)-1,2-dimethyl-5-(7-{[(3R)-3-methyl-3,4-dihydro-1H-isoquinolin-2-yl]carbonyl}-2-{2-[3-(4-methylpiperazin-1-yl)phenyl]acetyl}-3,4-dihydro-1H-isoquinolin-6-yl)-N-phenylpyrrole-3-carboxamide], for which the Ki in test [1] worked out at 0.4 nM; in test [3], 0.12 nM; in test [6] (setting [10]) it was 0.03 nM; in test [7], 1.3 nM; in [8] it was 1.65 nM. Moreover, the “TR_FRET EKI G101V/WT selectivty ratio” value in test [2] was found to be 11.7. In [4], the “Ratio (G101V/WT)” value was 9.44. Further, the figures for the concentration for half-maximal inhibition (IC50) in [4] and in test [5] were 0.051 µM and 0.0054 µM, respectively. In addition, the “TR_FRET EKI BCLxL/WT selectivty ratio” value in [7] came out at 43.3.
Take `Cc1c(N(C(=O)c2cc(-c3cc4c(cc3C(=O)N3Cc5ccccc5C[C@H]3C)CN(C(=O)Cc3cccc(N5CCOCC5)c3)CC4)n(C)c2C)c2ccc(O)cc2)cc(C#N)n1C` [Example 6, N-(5-cyano-1,2-dimethylpyrrol-3-yl)-N-(4-hydroxyphenyl)-1,2-dimethyl-5-(7-{[(3R)-3-methyl-3,4-dihydro-1H-isoquinolin-2-yl]carbonyl}-2-{2-[3-(morpholin-4-yl)phenyl]acetyl}-3,4-dihydro-1H-isoquinolin-6-yl)pyrrole-3-carboxamide]: the Ki in [1] is 0.7 nM; in [3] it was 0.67 nM; in [6] (setting [10]), 0.13 nM; in [7], 1.1 nM; in [8], 2.03 nM. Further, the “TR_FRET EKI G101V/WT selectivty ratio” value in test [2] is recorded as 5.1. In addition, the “Ratio (G101V/WT)” value in test [4] is 5.34. In addition, the IC50 in test [4] amounted to 0.0566 µM; in test [5], 0.0106 µM. Besides, in [7], the “TR_FRET EKI BCLxL/WT selectivty ratio” value was determined as 8.5.
As to `COc1cccc(CC(=O)N2CCc3cc(-c4cc(C(=O)N(c5ccc(O)cc5)c5cc(C#N)n(C)c5C)c(C)n4C)c(C(=O)N4Cc5ccccc5C[C@H]4C)cc3C2)c1` [Example 7, N-(5-cyano-1,2-dimethyl-1H-pyrrol-3-yl)-N-(4-hydroxyphenyl)-5-{2-[2-(3-methoxyphenyl)acetyl]-7-[(3R)-3-methyl-1,2,3,4-tetrahydroisoquinoline-2-carbonyl]-1,2,3,4-tetrahydroisoquinolin-6-yl}-1,2-dimethyl-1H-pyrrole-3-carboxamide], the Ki in [1] is 0.8 nM; in test [3] it was 0.88 nM; in [6] (setting [10]), 0.14 nM; in [8], 2.6 nM. In addition, the “TR_FRET EKI G101V/WT selectivty ratio” value in test [2] was found to be 5.7. Further, the “Ratio (G101V/WT)” value in test [4] stood at 12.2. The IC50 in test [4] is 0.0713 µM; in test [5], 0.0058 µM.
For the molecule `Cc1c(N(C(=O)c2cc(-c3cc4c(cc3C(=O)N3Cc5ccccc5C[C@H]3C)CN(C(=O)Cc3cccc(N5CCN6CCOC[C@@H]6C5)c3)CC4)n(C)c2C)c2ccccc2)cc(C#N)n1C` [Example 8, 5-[2-(2-{3-[(9aS)-hexahydro-1H-piperazino[2,1-c]morpholin-8-yl]phenyl}acetyl)-7-{[(3R)-3-methyl-3,4-dihydro-1H-isoquinolin-2-yl]carbonyl}-3,4-dihydro-1H-isoquinolin-6-yl]-N-(5-cyano-1,2-dimethylpyrrol-3-yl)-1,2-dimethyl-N-phenylpyrrole-3-carboxamide], the Ki in [1] stood at 1.2 nM; in test [6] (setting [10]), 0.06 nM; in test [7] it was 2.8 nM; in [8] it was 3.46 nM. Also, the “TR_FRET EKI G101V/WT selectivty ratio” value in [2] was found to be 20.3. In addition, in test [4], the “Ratio (G101V/WT)” value is on record as 27.6. Also, the results for the half-maximal inhibitory concentration (IC50) in [4] and in test [5] were 0.0727 µM and 0.0026 µM, respectively. The “TR_FRET EKI BCLxL/WT selectivty ratio” value in [7] amounted to 47.46.
On to `Cc1cc(O)ccc1N(C(=O)c1cc(-c2cc3c(cc2C(=O)N2Cc4ccccc4C[C@H]2C)CN(C(=O)Cc2ccccc2)CC3)n(C)c1C)c1cc(C#N)n(C)c1C` [Example 9, N-(5-cyano-1,2-dimethyl-1H-pyrrol-3-yl)-N-(4-hydroxy-2-methylphenyl)-1,2-dimethyl-5-{7-[(3R)-3-methyl-1,2,3,4-tetrahydroisoquinoline-2-carbonyl]-2-(2-phenylacetyl)-1,2,3,4-tetrahydroisoquinolin-6-yl}-1H-pyrrole-3-carboxamide], for which the Ki in test [1] stood at 2.8 nM; in [3] it was 1.27 nM; in [6] (setting [10]), 0.48 nM; in test [8], 17.9 nM. Moreover, in [2], the “TR_FRET EKI G101V/WT selectivty ratio” value came to 5.8. For the same molecule, the “Ratio (G101V/WT)” value in test [4] was determined as 7.01. In addition, the IC50 stood at 0.178 µM in [4] and 0.0254 µM in test [5].
`Cc1c(N(C(=O)c2cc(-c3cc4c(cc3C(=O)N3Cc5ccccc5C[C@H]3C)CN(C(=O)Cc3ccc(OCCN5CCOCC5)cc3)CC4)n(C)c2C)c2ccccc2)cc(C#N)n1C` [Example 236]: the Ki in test [1] worked out at 0.73 nM; in test [3], 0.786 nM; in test [9], 0.132 nM; in test [6] (Ki determined from IC50, read-out: TR_FRET EKI_Bcl2) it was 0.078 nM; in test [7], 4.15 nM; in test [8], 1.12 nM. For the same molecule, the “TR_FRET EKI G101V/WT selectivty” value in [2] (ratio of Ki BCL2 G101V to BCL2 WT) amounted to 9.3. This molecule also registered an IC50 in test [5] of 0.00418 µM. For the same molecule, the “TR_FRET EKI BCLxL/WT selectivty” value in test [7] (ratio of Ki BCLxL to BCL2 WT) was found to be 53.1.
